Results published in patent US20100267561A1, “HERBICIDAL PYRIDAZINONE DERIVATIVES” (priority 2007, published 2010).

Columns and labels:
Test in all cases: Test A pre-/postemergence plant response
Format in all cases: in vivo
[1] = tested on: velvetleaf (Abutilon theophrasti)
Excerpt: (§1) Seeds of species selected from barnyardgrass (Echinochloa crus-galli), large crabgrass (Digitaria sanguinalis), giant foxtail (Setaria faberi), blackgrass (Alopecurus myosuroides), canarygrass (Phalaris minor), morningglory (Ipomoea coccinea), pigweed (Amaranthus retroflexus), velvetleaf (Abutilon theophrasti), wheat (Triticum aestivum), and corn (Zea mays) were planted into a blend of loam soil and sand and treated preemergence with a directed soil spray using test chemicals formulated in a non-phytotoxic solvent mixture which included a surfactant. At the same time these species were also treated with postemergence applications of test chemicals formulated in the same manner.
(§2) Plants ranged in height from 2 to 10 cm and were in the one- to two-leaf stage for the postemergence treatment. Treated plants and untreated controls were maintained in a greenhouse for approximately 10 days, after which time all treated plants were compared to untreated controls and visually evaluated for injury. Plant response ratings, summarized in Table A, are based on a 0 to 100 scale where 0 is no effect and 100 is complete control. A dash (-) response means no test results.

[2] = tested on: wheat (Triticum aestivum)
Excerpt: as §1, §2

[3] = tested on: large crabgrass (Digitaria sanguinalis)
Excerpt: as §1, §2

[4] = tested on: barnyardgrass (Echinochloa crus-galli)
Excerpt: as §1, §2

[5] = tested on: morningglory (Ipomoea coccinea)
Excerpt: as §1, §2

[6] = tested on: giant foxtail (Setaria faberi)
Excerpt: as §1, §2

corn (Zea mays) = tested on: corn (Zea mays)
Excerpt: as §1, §2

[7] = tested on: pigweed (Amaranthus retroflexus)
Excerpt: as §1, §2

[8] = Postemergence, 62 g ai/ha, 0 to 100 scale, 0 no effect, 100 complete control
[9] = Postemergence, 250 g ai/ha, 0 to 100 scale, 0 no effect, 100 complete control
[10] = Preemergence, 62 g ai/ha, 0 to 100 scale, 0 no effect, 100 complete control
[11] = Preemergence, 250 g ai/ha, 0 to 100 scale (0 no effect, 100 complete control)
[12] = Postemergence, 125 g ai/ha, 0 to 100 scale, 0 no effect, 100 complete control
[13] = Postemergence, 500 g ai/ha, 0 to 100 scale, 0 no effect, 100 complete control
[14] = Preemergence, 125 g ai/ha, 0 to 100 scale (0 no effect, 100 complete control)
[15] = Preemergence, 500 g ai/ha, 0 to 100 scale (0 no effect, 100 complete control)
[16] = Postemergence, 31 g ai/ha, 0 to 100 scale (0 no effect, 100 complete control)
[17] = Preemergence, 31 g ai/ha, 0 to 100 scale, 0 is no effect, 100 is complete control

CCc1cc(-c2ccc(C(F)(F)F)cc2)nn1-c1c(OC(=O)C(C)(C)C)cnn(C)c1=O [Compound 18]
80: Plant response rating, Wheat [2, 9] | Plant response rating, Crabgrass, Large [3, 8] | Plant response rating, Corn (corn (Zea mays); [8])
0: Plant response rating, Velvetleaf [1, 8] | Plant response rating, Velvetleaf [1, 9] | Plant response rating, Velvetleaf [1, 10] | Plant response rating, Velvetleaf [1, 11] | Plant response rating, Morningglory [5, 8] | Plant response rating, Morningglory [5, 9] | Plant response rating, Morningglory [5, 10] | Plant response rating, Morningglory [5, 11] | Plant response rating, Pigweed [7, 8] | Plant response rating, Pigweed [7, 9] | Plant response rating, Pigweed [7, 10] | Plant response rating, Pigweed [7, 11]
100: Plant response rating, Wheat [2, 11] | Plant response rating, Crabgrass, Large [3, 9] | Plant response rating, Crabgrass, Large [3, 10] | Plant response rating, Crabgrass, Large [3, 11] | Plant response rating, Barnyardgrass [4, 9] | Plant response rating, Barnyardgrass [4, 10] | Plant response rating, Barnyardgrass [4, 11] | Plant response rating, Foxtail, Giant [6, 9] | Plant response rating, Foxtail, Giant [6, 10] | Plant response rating, Foxtail, Giant [6, 11]
90: Plant response rating, Wheat [2, 10] | Plant response rating, Barnyardgrass [4, 8] | Plant response rating, Foxtail, Giant [6, 8] | Plant response rating, Corn (corn (Zea mays); [9]) | Plant response rating, Corn (corn (Zea mays); [10]) | Plant response rating, Corn (corn (Zea mays); [11])
70: Plant response rating, Wheat [2, 8]

Cc1nc(-c2ccc(C(F)(F)F)cc2)sc1-c1c(O)cnn(C)c1=O [Compound 24]
10: Plant response rating, Crabgrass, Large [3, 13] | Plant response rating, Barnyardgrass [4, 13]
60: Plant response rating, Crabgrass, Large [3, 15]
30: Plant response rating, Barnyardgrass [4, 15]
40: Plant response rating, Foxtail, Giant [6, 13]
20: Plant response rating, Wheat [2, 13] | Plant response rating, Corn (corn (Zea mays); [13])
80: Plant response rating, Foxtail, Giant [6, 15]
0: Plant response rating, Velvetleaf [1, 12] | Plant response rating, Velvetleaf [1, 13] | Plant response rating, Velvetleaf [1, 14] | Plant response rating, Velvetleaf [1, 15] | Plant response rating, Wheat [2, 12] | Plant response rating, Wheat [2, 14] | Plant response rating, Wheat [2, 15] | Plant response rating, Crabgrass, Large [3, 12] | Plant response rating, Crabgrass, Large [3, 14] | Plant response rating, Barnyardgrass [4, 12] | Plant response rating, Barnyardgrass [4, 14] | Plant response rating, Morningglory [5, 12] | Plant response rating, Morningglory [5, 13] | Plant response rating, Morningglory [5, 14] | Plant response rating, Morningglory [5, 15] | Plant response rating, Foxtail, Giant [6, 12] | Plant response rating, Foxtail, Giant [6, 14] | Plant response rating, Corn (corn (Zea mays); [12]) | Plant response rating, Corn (corn (Zea mays); [14]) | Plant response rating, Corn (corn (Zea mays); [15]) | Plant response rating, Pigweed [7, 12] | Plant response rating, Pigweed [7, 13] | Plant response rating, Pigweed [7, 14] | Plant response rating, Pigweed [7, 15]

Cn1ncc(O)c(-c2nn(-c3ccc(C(F)(F)F)cn3)cc2Br)c1=O [Compound 71]
10: Plant response rating, Crabgrass, Large [3, 17] | Plant response rating, Barnyardgrass [4, 16]
100: Plant response rating, Foxtail, Giant [6, 14]
30: Plant response rating, Foxtail, Giant [6, 16]
40: Plant response rating, Barnyardgrass [4, 14] | Plant response rating, Corn (corn (Zea mays); [12])
0: Plant response rating, Velvetleaf [1, 16] | Plant response rating, Velvetleaf [1, 12] | Plant response rating, Velvetleaf [1, 17] | Plant response rating, Velvetleaf [1, 14] | Plant response rating, Wheat [2, 16] | Plant response rating, Wheat [2, 17] | Plant response rating, Barnyardgrass [4, 17] | Plant response rating, Morningglory [5, 16] | Plant response rating, Morningglory [5, 12] | Plant response rating, Morningglory [5, 17] | Plant response rating, Morningglory [5, 14] | Plant response rating, Foxtail, Giant [6, 17] | Plant response rating, Corn (corn (Zea mays); [16]) | Plant response rating, Corn (corn (Zea mays); [17]) | Plant response rating, Pigweed [7, 16] | Plant response rating, Pigweed [7, 12] | Plant response rating, Pigweed [7, 17] | Plant response rating, Pigweed [7, 14]
20: Plant response rating, Crabgrass, Large [3, 16] | Plant response rating, Corn (corn (Zea mays); [14])
60: Plant response rating, Crabgrass, Large [3, 14]
80: Plant response rating, Wheat [2, 12] | Plant response rating, Crabgrass, Large [3, 12]
90: Plant response rating, Barnyardgrass [4, 12] | Plant response rating, Foxtail, Giant [6, 12]
50: Plant response rating, Wheat [2, 14]
